Among the test systems are UO-31 renal; HCT-116 colon; BT-549 breast; RPMI-8226 leukemia; A498 renal; MCF7 breast; SK-MEL-28 melanoma; HL-60(TB) leukemia; HCC-2998 colon; EKVX NSCLC.
Holding throughout (test): NCI anticancer screen, dose series, 48 h

Molecules are shown by their SMILES.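 Cells were grown in 96-well plates and exposed to each compound for 48 hours at five concentrations; endpoints were interpolated linearly between bracketing concentrations, or set to the highest concentration if not reached. Here, GI50 denotes the concentration required for 50% inhibition of growth. TGI: concentration producing complete growth inhibition.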

As to `FC(F)(F)c1cc(NC2=NCCN=C(Nc3cc(C(F)(F)F)cc(C(F)(F)F)c3)SS2)cc(C(F)(F)F)c1`, the GI50 in the assay with UO-31 renal is 2.66 µM; with HCT-116 colon, 3.73 µM; in the assay with BT-549 breast it was 6.2 µM; in the assay with RPMI-8226 leukemia, 2.58 µM; with A498 renal, 2.24 µM; with MCF7 breast, 2.9 µM. The GI50 with SK-MEL-28 melanoma was 6.07 µM; in the assay with HL-60(TB) leukemia, 3.27 µM; in the assay with HCC-2998 colon, 6.15 µM. Moreover, the TGI in the assay with UO-31 renal turned out to be 11.9 µM; with HCT-116 colon, 12.5 µM; with BT-549 breast it was 19.1 µM; in the assay on RPMI-8226 leukemia, 8.8 µM; with A498 renal, 9.68 µM; in the assay with MCF7 breast it was 12.6 µM. In addition, the TGI in the assay with SK-MEL-28 melanoma was determined as 19.4 µM; with HL-60(TB) leukemia it was 15.8 µM; in the assay with HCC-2998 colon, 19.3 µM.

`Cc1ccc(S(=O)(=O)c2ccsc2N)cc1`: the GI50 in the assay with UO-31 renal is 47.2 µM; in the assay with HCT-116 colon, greater than 100 µM; in the assay on BT-549 breast, greater than 100 µM; in the assay with RPMI-8226 leukemia it was 95.4 µM; in the assay with A498 renal it was 40.7 µM; in the assay with MCF7 breast, greater than 100 µM. The GI50 in the assay with SK-MEL-28 melanoma, with HL-60(TB) leukemia and with HCC-2998 colon was greater than 100 µM throughout. The TGI in the assay with UO-31 renal, in the assay on HCT-116 colon, in the assay on BT-549 breast, with RPMI-8226 leukemia, with A498 renal and with MCF7 breast was greater than 100 µM in each case. Moreover, the TGI in the assay on SK-MEL-28 melanoma, in the assay on HL-60(TB) leukemia and in the assay on HCC-2998 colon was greater than 100 µM in each case.

With `C(#Cc1ccccc1C#Cc1ccccn1)c1ccccn1`, the GI50 with UO-31 renal was 16.4 µM; with HCT-116 colon, 26.4 µM; with BT-549 breast, 23.6 µM; with EKVX NSCLC it was 20.5 µM; in the assay on A498 renal, 18 µM; in the assay with MCF7 breast, 14.3 µM. Moreover, the GI50 is 27.4 µM in the assay with SK-MEL-28 melanoma, 3.92 µM in the assay with HL-60(TB) leukemia and 4.77 µM in the assay on HCC-2998 colon. The TGI was 35.3 µM in the assay with UO-31 renal; greater than 100 µM in the assay on HCT-116 colon; 45.2 µM with BT-549 breast; 40.2 µM in the assay on EKVX NSCLC; 34.6 µM in the assay on A498 renal; 38.2 µM in the assay with MCF7 breast. For the same molecule, the TGI with SK-MEL-28 melanoma amounted to 84 µM; with HL-60(TB) leukemia, 17.7 µM; in the assay on HCC-2998 colon it was 14.5 µM.

As for `C=C(C)[C@@H]1CC[C@]2(C)[C@H](CC=C3[C@@H]4[C@H](C)[C@@H](C)CC[C@]4(CO)CC[C@]32C)[C@@]1(C)CCCN`, the GI50 with UO-31 renal was 0.823 µM; in the assay with HCT-116 colon, 0.807 µM; in the assay with BT-549 breast, 2.56 µM; with EKVX NSCLC, 1.08 µM; with A498 renal, 3.83 µM; with SK-MEL-28 melanoma it was 0.952 µM. The results for the GI50 in the assay with HL-60(TB) leukemia and with HCC-2998 colon were 1.03 µM and 0.873 µM, respectively. In addition, the TGI in the assay with UO-31 renal worked out at 2.24 µM; with HCT-116 colon, 1.54 µM; in the assay with BT-549 breast, 9.23 µM; in the assay on EKVX NSCLC, 2.94 µM; in the assay with A498 renal, 11.2 µM; in the assay on SK-MEL-28 melanoma, 1.67 µM. For the same molecule, the TGI with HL-60(TB) leukemia turned out to be 2.27 µM; with HCC-2998 colon, 1.62 µM.

Consider `O=C(c1ccccc1)c1ccccc1C(=O)c1ccccc1`, for which the GI50 in the assay on HCT-116 colon is 29.8 µM; with BT-549 breast, 32 µM; in the assay with EKVX NSCLC it was 28.6 µM; in the assay on A498 renal, 4.34 µM; in the assay on MCF7 breast, 1.76 µM; with SK-MEL-28 melanoma, 30.9 µM. Further, the GI50 with HL-60(TB) leukemia was 53.7 µM; with HCC-2998 colon, 32.3 µM. Besides, the TGI in the assay with HCT-116 colon is greater than 100 µM; with BT-549 breast it was greater than 100 µM; in the assay on EKVX NSCLC it was greater than 100 µM; in the assay with A498 renal, greater than 100 µM; with MCF7 breast it was 10.9 µM; in the assay with SK-MEL-28 melanoma it was greater than 100 µM. Further, the TGI was greater than 100 µM in the assay on HL-60(TB) leukemia and 85.3 µM in the assay on HCC-2998 colon.

In the case of `CCC(=O)OC1=CN2C(=NC(c3ccc(N)cc3)=CC2c2cc(OC)c(OC)c(OC)c2)S1` (stereo not drawn), the GI50 is 3.15 µM with UO-31 renal; 3.51 µM in the assay on HCT-116 colon; 4.57 µM in the assay on BT-549 breast; 2.44 µM in the assay with RPMI-8226 leukemia; 5.3 µM in the assay on A498 renal; 2.86 µM in the assay on MCF7 breast. The GI50 in the assay on SK-MEL-28 melanoma was 5.54 µM; in the assay on HL-60(TB) leukemia, 3.01 µM; in the assay on HCC-2998 colon, 4.47 µM. In addition, the TGI in the assay on UO-31 renal came to 13.6 µM; with HCT-116 colon, 13.1 µM; in the assay with BT-549 breast, 19.4 µM; with RPMI-8226 leukemia, 10 µM; with A498 renal, 20.8 µM; in the assay on MCF7 breast, 14.4 µM. The TGI is 18.3 µM in the assay on SK-MEL-28 melanoma, greater than 100 µM in the assay with HL-60(TB) leukemia and 15.7 µM in the assay on HCC-2998 colon.

With `Cc1[nH]n(-c2ccccc2)c(=O)c1C(=O)c1ccccc1`, the GI50 was greater than 25 µM in the assay with UO-31 renal; greater than 25 µM in the assay with HCT-116 colon; greater than 25 µM with BT-549 breast; greater than 25 µM in the assay on RPMI-8226 leukemia; greater than 6.04 µM in the assay on A498 renal; greater than 25 µM in the assay on MCF7 breast. The GI50 with SK-MEL-28 melanoma, in the assay on HL-60(TB) leukemia and in the assay on HCC-2998 colon was greater than 25 µM throughout. Besides, the TGI in the assay on UO-31 renal, in the assay on HCT-116 colon, in the assay with BT-549 breast, with RPMI-8226 leukemia, in the assay on A498 renal and in the assay on MCF7 breast was greater than 25 µM each time. Moreover, the TGI in the assay on SK-MEL-28 melanoma, with HL-60(TB) leukemia and with HCC-2998 colon was greater than 25 µM in each case.

Regarding `Cc1ccc([N+](=O)[O-])cc1NC(=O)C(=O)C1CCC2=C(Sc3ccccc3N2)C1=O` (stereo not drawn), the TGI in the assay on UO-31 renal, with HCT-116 colon, in the assay on BT-549 breast, in the assay with EKVX NSCLC, in the assay with MCF7 breast and with SK-MEL-28 melanoma was greater than 100 µM throughout. The TGI with HL-60(TB) leukemia and with HCC-2998 colon was greater than 100 µM throughout.

For `CC(C)(O)CCC(O)C(C)(O)C1CCC2(O)C3=CC(=O)C4(O)CC(O)C(O)CC4(C)C3CCC12C` (stereo not drawn) (tested in a mixture with another compound), the TGI in the assay with UO-31 renal, with HCT-116 colon, with BT-549 breast, with EKVX NSCLC, in the assay with A498 renal and with MCF7 breast was greater than 100 µM each time. Further, the TGI with SK-MEL-28 melanoma and in the assay with HL-60(TB) leukemia was greater than 100 µM each time.

For the origin of these results see PubChem BioAssay (NCI).
